This note sets out measurements from publication PMC12655744, “From Bench to Bioactivity: An Integrated Medicinal Development Based on Kinetic and Simulation Assessment of Pyrazolone-Oxadiazole Coupled Benzamide as Promising Inhibitors of Diabetes Mellitus” (Pharmaceuticals, 2025).

For orientation: IC50 means the concentration at which inhibition is half-maximal.

Common to all, as to format: biochemical
One assay concerns the target alpha-glucosidase. In words: Alpha-glucosidase inhibition assay (absorbance 405 nm). To be noted: mean ± SEM; read-out: IC50 = α-glucosidase µM ± SEM. How it is done:
100 µL. The reaction was […] by adding 100 µL of sodium carbonate (200 mM). The absorbance at 405 nm was measured using a microplate reader. This experimental proce-dure was conducted in triplicate, and a control group without the tested compound was included for comparison. […] The percentage […]
inhibition was calculated using the following equation, where “Abs” represents absorb- […]
% inhibition = (Abs control − Abs sample) × 100 […]
(§1) Radius of 12 Å around the Montbretin A binding site was defined for enzyme active site. Accomplishment of docking calculations was achieved using Chem PLP scoring function.
(§2) The geometric parameters and energies were computed by density functional theory at the B3LYP/CEP-631G level of theory, using the […] 98W package of the pro- […]
(§3) grams, on geometries that were optimized at CEP-631G basis set.

The next assay concerns the target alpha-amylase. In words: Alpha-amylase activity assay (starch/DNS, 540 nm). To be noted: mean ± SEM; read-out: IC50 = α-amylase µM ± SEM. How it is done:
% inhibition = (Abs control − Abs sample) × 100
S.3 Alpha-Amylase Activity Assay:
The inhibitory potential of α-Amylase enzyme was evaluated through the standard methodology. A test tube containing (250 µL) of the compound being tested at various concentrations (50–250 µg/mL), (250 µL) of [1% (w/v)] starch solution, and (250 µL) of (1U/mL) alpha-amylase solution was prepared. Post-incubation at 20ᵒC for 3 min, the en-zymatic process was halted by adding (500 µL) of dinitro salicylic acid (color Reagent).
Following this, (250 µL) of α-amylase was immediately introduced after heating the mix-ture in hot water. The mixture was subsequently subjected to heating at 85 ᵒC for duration of 15 min, followed by a 5-min incubation period at room temperature. (4500 µL) of dis-tilled water was added, resulting in a final volume of (6000 µL). Spectrophotometric anal-ysis at 540 nm was conducted to determine absorbance. A control sample devoid of the […]
equation is used for calculation. […]
as §1, §2, §3

The next assay deals with diabetes enzymes. In words: Enzyme kinetic studies (mode of inhibition). To be noted: Figure 8. An excerpt: Enzyme kinetics studies provide the most vital information for how drugs work against the disease, such as binding of the inhibitor with its target, and the concentration required to achieve the desired effects. This study explains that the amount of the drug will be affected, slowing down the biological process. The different patterns for slowing down a process are obtained in the form of curves or slopes. This also provides how various forms of inhibitors or derivatives cause the reaction kinetics to slow in unique ways by adding more inhibitors. […] The substitution of unique functional groups in various sites of the phenyl ring might be responsible for its remarkable efficiency. The graphical curves in Figure 8 show the direct competition of the analog against the substrate for the same spot on the enzyme. […]
100 µL. […] The absorbance at 405 nm was measured using a microplate reader. […] The percentage inhibition was calculated using the following equation, where “Abs” represents absorb- […]
The inhibitory potential of α-Amylase enzyme was evaluated through the standard methodology. […]
Following this, (250 µL) of α-amylase was immediately introduced after heating the mix-ture in hot water. […] Spectrophotometric anal-ysis at 540 nm was conducted to determine absorbance. […]

Consider `O=C1C=C(Nc2nnc(NC(=O)c3c(O)cc(O)cc3O)o2)N=N1` [Compound 3], for which the IC50 came to 3.6 ± 0.1 µM on alpha-glucosidase and 3.2 ± 0.2 µM on alpha-amylase. Further, the Mode of inhibition result in the assay with diabetes enzymes was “competitive inhibitor”.

On to `Cc1ccc(Cl)c(C(=O)Nc2nnc(NC3=CC(=O)N=N3)o2)c1` [Compound 8], for which the IC50 came to 12.1 ± 0.1 µM on alpha-glucosidase and 11.7 ± 0.2 µM on alpha-amylase.

With `O=C1C=C(Nc2nnc(NC(=O)c3ccc(Br)cc3)o2)N=N1` [Compound 9], the IC50 on alpha-glucosidase is 16.1 ± 0.2 µM; on alpha-amylase, 15.3 ± 0.1 µM.
